Consider one compound from BindingDB's records for patent US20240208932 (Xizang Haisco Pharmaceutical, 2024).

What all share (assay): CYP450 Enzyme Inhibition Assay
In one experiment the target is Cytochrome P450 3A4 (Homo sapiens, UniProt P08684). How it is done:
(§1) The purpose of this study was to evaluate the effect of the test compound on the activity of five isoenzymes (CYP1A2, CYP2C9, CYP2C19, CYP2D6 and CYP3A4) of human liver microsomal cytochrome P450 (CYP) by using an in vitro testing system. The specific probe substrates of CYP450 isoenzymes were incubated with human liver microsomes and test compounds of different concentrations, and reduced nicotinamide adenine dinucleotide phosphate (NADPH) was added to initiate the reaction. After the completion of the reaction, the sample was treated and liquid chromatography-tandem mass spectrometry (LC-MS/MS) was used to quantitatively detect metabolites produced by specific substrates, changes in CYP enzyme activity were determined, and IC50 value was calculated to evaluate the inhibitory potential of the test compound on each CYP enzyme subtype.

The next experiment has as its target Cytochrome P450 2D6 (Homo sapiens, UniProt P10635). Here is the method: as §1
In the next experiment the target is Cytochrome P450 2C19 (Homo sapiens, UniProt P33261). How it is done:
as §1

Another experiment deals with Cytochrome P450 2C9 (Homo sapiens, UniProt P11712). How it is done:
as §1

For a further experiment, the target named is T1, Cytochrome P450 1A2 (Homo sapiens, UniProt P05177).
T1 sequence (P05177 whole entry): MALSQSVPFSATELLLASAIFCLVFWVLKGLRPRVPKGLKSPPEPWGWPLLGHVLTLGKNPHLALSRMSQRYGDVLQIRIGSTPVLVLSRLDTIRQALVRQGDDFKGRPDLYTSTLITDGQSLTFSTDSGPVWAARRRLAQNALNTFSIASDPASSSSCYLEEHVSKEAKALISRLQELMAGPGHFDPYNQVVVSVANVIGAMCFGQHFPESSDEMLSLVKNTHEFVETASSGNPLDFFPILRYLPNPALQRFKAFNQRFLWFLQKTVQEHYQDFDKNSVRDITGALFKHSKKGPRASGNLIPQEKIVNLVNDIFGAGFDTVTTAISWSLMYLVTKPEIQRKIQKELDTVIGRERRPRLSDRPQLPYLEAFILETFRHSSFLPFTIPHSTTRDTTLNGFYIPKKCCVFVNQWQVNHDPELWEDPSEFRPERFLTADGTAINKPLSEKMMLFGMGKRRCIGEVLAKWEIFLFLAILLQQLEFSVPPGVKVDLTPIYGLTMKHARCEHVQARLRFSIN
Here is the method: as §1

Sequence of Cytochrome P450 2C19 (P33261 whole entry): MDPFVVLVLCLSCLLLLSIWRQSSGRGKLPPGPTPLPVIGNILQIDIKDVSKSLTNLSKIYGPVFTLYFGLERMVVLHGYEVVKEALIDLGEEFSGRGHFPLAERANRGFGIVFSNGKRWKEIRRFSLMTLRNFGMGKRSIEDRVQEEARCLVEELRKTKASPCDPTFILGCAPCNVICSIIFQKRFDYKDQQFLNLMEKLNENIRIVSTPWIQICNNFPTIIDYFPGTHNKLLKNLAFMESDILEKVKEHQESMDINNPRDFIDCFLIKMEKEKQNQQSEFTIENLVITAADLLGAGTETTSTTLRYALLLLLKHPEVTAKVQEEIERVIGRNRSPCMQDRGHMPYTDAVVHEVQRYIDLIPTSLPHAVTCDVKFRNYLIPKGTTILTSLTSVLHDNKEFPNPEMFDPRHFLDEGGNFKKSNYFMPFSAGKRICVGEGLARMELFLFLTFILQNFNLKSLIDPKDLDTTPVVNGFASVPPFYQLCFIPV
Sequence of Cytochrome P450 3A4 (P08684 whole entry): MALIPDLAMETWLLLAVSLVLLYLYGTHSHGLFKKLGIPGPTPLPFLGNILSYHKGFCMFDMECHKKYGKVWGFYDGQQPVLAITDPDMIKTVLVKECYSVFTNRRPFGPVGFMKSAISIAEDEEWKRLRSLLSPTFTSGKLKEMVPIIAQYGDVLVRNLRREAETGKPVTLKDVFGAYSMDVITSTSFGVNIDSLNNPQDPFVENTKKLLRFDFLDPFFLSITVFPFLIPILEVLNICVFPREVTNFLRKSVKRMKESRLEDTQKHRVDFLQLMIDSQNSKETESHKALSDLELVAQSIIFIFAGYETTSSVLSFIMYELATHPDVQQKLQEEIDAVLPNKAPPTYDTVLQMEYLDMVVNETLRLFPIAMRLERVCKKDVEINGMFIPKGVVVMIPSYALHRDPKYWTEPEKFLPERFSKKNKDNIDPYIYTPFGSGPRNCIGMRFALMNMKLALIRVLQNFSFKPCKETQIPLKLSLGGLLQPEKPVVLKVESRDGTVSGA
Sequence of Cytochrome P450 2C9 (P11712 whole entry): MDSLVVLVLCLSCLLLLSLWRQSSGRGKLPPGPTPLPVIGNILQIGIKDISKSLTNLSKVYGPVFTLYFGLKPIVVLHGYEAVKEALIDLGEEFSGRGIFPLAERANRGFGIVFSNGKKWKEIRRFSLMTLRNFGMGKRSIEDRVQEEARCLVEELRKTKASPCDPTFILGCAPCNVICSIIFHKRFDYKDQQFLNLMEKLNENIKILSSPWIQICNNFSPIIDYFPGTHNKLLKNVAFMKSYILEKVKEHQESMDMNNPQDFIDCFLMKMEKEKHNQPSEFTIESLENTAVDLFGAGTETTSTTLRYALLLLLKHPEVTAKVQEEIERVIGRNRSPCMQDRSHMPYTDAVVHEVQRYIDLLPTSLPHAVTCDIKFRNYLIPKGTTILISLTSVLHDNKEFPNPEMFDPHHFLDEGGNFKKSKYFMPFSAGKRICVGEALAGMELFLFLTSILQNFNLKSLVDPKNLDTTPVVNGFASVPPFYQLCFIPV
Sequence of Cytochrome P450 2D6 (P10635 whole entry): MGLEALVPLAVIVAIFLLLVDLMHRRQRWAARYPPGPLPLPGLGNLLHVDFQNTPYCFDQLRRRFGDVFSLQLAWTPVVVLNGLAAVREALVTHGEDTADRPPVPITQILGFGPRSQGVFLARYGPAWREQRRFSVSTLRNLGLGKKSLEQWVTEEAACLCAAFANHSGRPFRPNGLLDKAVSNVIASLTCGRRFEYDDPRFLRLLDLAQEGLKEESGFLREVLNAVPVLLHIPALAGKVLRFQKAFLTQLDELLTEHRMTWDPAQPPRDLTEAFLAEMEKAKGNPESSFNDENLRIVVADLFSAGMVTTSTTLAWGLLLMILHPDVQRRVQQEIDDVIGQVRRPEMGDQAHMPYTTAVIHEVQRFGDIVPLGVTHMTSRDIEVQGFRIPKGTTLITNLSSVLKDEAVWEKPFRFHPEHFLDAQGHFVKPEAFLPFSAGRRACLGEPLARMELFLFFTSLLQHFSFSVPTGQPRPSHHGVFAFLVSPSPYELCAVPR

The term IC50 denotes the concentration needed to halve the response being measured. Higher therefore signals a need for much substance. As for `C[C@@H]1Cc2c([nH]c3ccccc23)[C@H](c2c(F)cc(N[C@H]3CCN(CCCF)C3)cc2F)N1CC(F)(F)F` [WO2021228210, Compound 4], the IC50 against Cytochrome P450 3A4 came to 12.8 µM; against Cytochrome P450 2D6 it was 13.8 µM; on Cytochrome P450 2C19 it was 19.1 µM; against Cytochrome P450 2C9, 15.6 µM; against Cytochrome P450 1A2, 15.6 µM.
